Earlier results as cited in PMC9981747, “A covalent BTK ternary complex compatible with targeted protein degradation” (Nature Communications, 2023).

Tests used:
[1] = design: method as in PMID 27274052; conditions: cited from earlier work
[2] = design: method as in PMID 31879210; conditions: 1 mg/kg IV; cited from earlier work

Compound | concentrations in sub-chronic tumor growth inhibition study ([1]; in 4 of 8 rodents tested) | Cmax ([1]; single 10 mg/kg sc dose, read-out: plasma Cmax) | exposure [2]
Cc1ncsc1-c1ccc([C@H](C)NC(=O)[C@@H]2C[C@@H](O)CN2C(=O)[C@@H](NC(=O)COCCCOCCNC(=O)C[C@@H]2N=C(c3ccc(Cl)cc3)c3c(sc(C)c3C)-n3c(C)nnc32)C(C)(C)C)cc1 [ARV-771] | > 2000 nM | ~1700 nM | –
Nc1ncnc2c1c(-c1ccc(Oc3ccccc3)cc1)nn2C1CCN(CCOCCOCCOc2ccc3c(c2)CN(C2CCC(=O)NC2=O)C3=O)CC1 (stereo not drawn) [SJF620] | – | – | micromolar exposures
